Measurements reported in PubChem BioAssay AID1963830 (Molecular Pharmacology Branch, DTP, NCI, 2024).

Test system: 922993-354-T-J3-PDC complex spheroid viability
Test: Anticancer human tumor 922993-354-T-J3-PDC patient-derived endometrial carcinoma cell line growth inhibition [POLQ]
Details: for IC50: curve of first compound; for viability, T/C: stronger effect = lower value
Outline: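 Growth inhibition in 3D: complex spheroids (tumor PDC, HUVEC, MSC) treated with POLQ inhibitor combinations; where Cmax unknown, highest tested concentration 10 microM, except SN-38 at 1 microM.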

[1] = second compound 0.0316 µM, first compound 0.0316 µM
[2] = second compound 0.0316 µM, first compound 0.1 µM
[3] = second compound 0.1 µM, first compound 0.0316 µM
[4] = second compound 0.1 µM, first compound 0.1 µM
[5] = second compound 0.316 µM, first compound 0.0316 µM
[6] = second compound 0.316 µM, first compound 0.1 µM
[7] = second compound 1 µM, first compound 0.0316 µM
[8] = second compound 1 µM, first compound 0.1 µM
[9] = second compound 3.16 µM, first compound 0.0316 µM
[10] = second compound 3.16 µM, first compound 0.1 µM
[11] = second compound 10 µM, first compound 0.0316 µM
[12] = second compound 10 µM, first compound 0.1 µM
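Note: spheroids exposed to the agents for one week.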
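Throughout, for viability, T/C: 100% = DMSO vehicle control wells.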

Q: Which IC50 (second compound 0.0316 µM) does the source give for `CC[C@@]1(O)C(=O)OCc2c1cc1n(c2=O)Cc2cc3c(CN(C)C)c(O)ccc3nc2-1` + Nc1ccc(C#CCN(C(=O)Cc2ncc(C(F)(F)F)cc2C(F)(F)F)c2ccc(F)cc2)nn1 here?
A: > 100 nM

Q: What about the IC50 (second compound 0.1 µM) of the same molecule?
A: > 100 nM

Q: And the IC50 (second compound 0.316 µM)?
A: > 100 nM

Q: What about the IC50 (second compound 1 µM) of the same molecule?
A: > 100 nM

Q: What about the IC50 (second compound 3.16 µM) of the same molecule?
A: > 100 nM

Q: What about the IC50 (second compound 10 µM) of the same molecule?
A: 54.7 nM

Q: What about the viability, T/C (second compound 0.0316 µM, first compound 0.000316 µM) of the same molecule?
A: 103%

Q: What about the viability, T/C (second compound 0.0316 µM, first compound 0.001 µM) of the same molecule?
A: 105%

Q: What about the viability, T/C (second compound 0.0316 µM, first compound 0.00316 µM) of the same molecule?
A: 99.4%

Q: What about the viability, T/C (second compound 0.0316 µM, first compound 0.01 µM) of the same molecule?
A: 101%

Q: And the viability, T/C [1]?
A: 100%

Q: What about the viability, T/C [2] of the same molecule?
A: 89.5%

Q: What about the viability, T/C (second compound 0.1 µM, first compound 0.000316 µM) of the same molecule?
A: 102%

Q: And the viability, T/C (second compound 0.1 µM, first compound 0.001 µM)?
A: 105%

Q: What about the viability, T/C (second compound 0.1 µM, first compound 0.00316 µM) of the same molecule?
A: 100%

Q: What about the viability, T/C (second compound 0.1 µM, first compound 0.01 µM) of the same molecule?
A: 102%

Q: What about the viability, T/C [3] of the same molecule?
A: 102%

Q: And the viability, T/C [4]?
A: 87.2%

Q: What about the viability, T/C (second compound 0.316 µM, first compound 0.000316 µM) of the same molecule?
A: 105%

Q: What about the viability, T/C (second compound 0.316 µM, first compound 0.001 µM) of the same molecule?
A: 98.1%

Q: What about the viability, T/C (second compound 0.316 µM, first compound 0.00316 µM) of the same molecule?
A: 103%

Q: What about the viability, T/C (second compound 0.316 µM, first compound 0.01 µM) of the same molecule?
A: 98.9%

Q: What about the viability, T/C [5] of the same molecule?
A: 103%

Q: And the viability, T/C [6]?
A: 81.1%

Q: And the viability, T/C (second compound 1 µM, first compound 0.000316 µM)?
A: 105%

Q: What about the viability, T/C (second compound 1 µM, first compound 0.001 µM) of the same molecule?
A: 103%

Q: What about the viability, T/C (second compound 1 µM, first compound 0.00316 µM) of the same molecule?
A: 100%

Q: What about the viability, T/C (second compound 1 µM, first compound 0.01 µM) of the same molecule?
A: 99.2%

Q: And the viability, T/C [7]?
A: 96%

Q: What about the viability, T/C [8] of the same molecule?
A: 82.2%

Q: What about the viability, T/C (second compound 3.16 µM, first compound 0.000316 µM) of the same molecule?
A: 101%

Q: What about the viability, T/C (second compound 3.16 µM, first compound 0.001 µM) of the same molecule?
A: 102%

Q: What about the viability, T/C (second compound 3.16 µM, first compound 0.00316 µM) of the same molecule?
A: 103%

Q: And the viability, T/C (second compound 3.16 µM, first compound 0.01 µM)?
A: 94.5%

Q: And the viability, T/C [9]?
A: 92.9%

Q: And the viability, T/C [10]?
A: 72.9%

Q: What about the viability, T/C (second compound 10 µM, first compound 0.000316 µM) of the same molecule?
A: 100%

Q: What about the viability, T/C (second compound 10 µM, first compound 0.001 µM) of the same molecule?
A: 91.3%

Q: What about the viability, T/C (second compound 10 µM, first compound 0.00316 µM) of the same molecule?
A: 97%

Q: And the viability, T/C (second compound 10 µM, first compound 0.01 µM)?
A: 92.9%

Q: What about the viability, T/C [11] of the same molecule?
A: 71.8%

Q: What about the viability, T/C [12] of the same molecule?
A: 25.9%

Q: Which results are given for `Nc1ccn(C2OC(CO)C(O)C2(F)F)c(=O)n1` (centres undefined) + Nc1ccc(C#CCN(C(=O)Cc2ncc(C(F)(F)F)cc2C(F)(F)F)c2ccc(F)cc2)nn1?
A: IC50 (second compound 0.0316 µM): < 31.6 nM; IC50 (second compound 0.1 µM): < 31.6 nM; IC50 (second compound 0.316 µM): < 31.6 nM; IC50 (second compound 1 µM): < 31.6 nM; IC50 (second compound 3.16 µM): < 31.6 nM; IC50 (second compound 10 µM): < 31.6 nM; viability, T/C [1]: 25.5%; viability, T/C [2]: 25%; viability, T/C (second compound 0.0316 µM, first compound 0.316 µM): 20.9%; viability, T/C (second compound 0.0316 µM, first compound 1 µM): 22.2%; viability, T/C (second compound 0.0316 µM, first compound 3.16 µM): 22.2%; viability, T/C (second compound 0.0316 µM, first compound 10 µM): 17.2%; viability, T/C [3]: 25.9%; viability, T/C [4]: 25.5%; viability, T/C (second compound 0.1 µM, first compound 0.316 µM): 18.4%; viability, T/C (second compound 0.1 µM, first compound 1 µM): 21.9%; viability, T/C (second compound 0.1 µM, first compound 3.16 µM): 21.3%; viability, T/C (second compound 0.1 µM, first compound 10 µM): 19.4%; viability, T/C [5]: 24.9%; viability, T/C [6]: 24%; viability, T/C (second compound 0.316 µM, first compound 0.316 µM): 22.1%; viability, T/C (second compound 0.316 µM, first compound 1 µM): 20.1%; viability, T/C (second compound 0.316 µM, first compound 3.16 µM): 22.4%; viability, T/C (second compound 0.316 µM, first compound 10 µM): 20.5%; viability, T/C [7]: 23.1%; viability, T/C [8]: 19.1%; viability, T/C (second compound 1 µM, first compound 0.316 µM): 22.7%; viability, T/C (second compound 1 µM, first compound 1 µM): 21.8%; viability, T/C (second compound 1 µM, first compound 3.16 µM): 21.3%; viability, T/C (second compound 1 µM, first compound 10 µM): 23.3%; viability, T/C [9]: 23.4%; viability, T/C [10]: 18.7%; viability, T/C (second compound 3.16 µM, first compound 0.316 µM): 19.1%; viability, T/C (second compound 3.16 µM, first compound 1 µM): 20.4%; viability, T/C (second compound 3.16 µM, first compound 3.16 µM): 21.1%; viability, T/C (second compound 3.16 µM, first compound 10 µM): 20.8%; viability, T/C [11]: 23.2%; viability, T/C [12]: 18.9%; viability, T/C (second compound 10 µM, first compound 0.316 µM): 21.9%; viability, T/C (second compound 10 µM, first compound 1 µM): 18.4%; viability, T/C (second compound 10 µM, first compound 3.16 µM): 20.1%; viability, T/C (second compound 10 µM, first compound 10 µM): 17.5%
